Test results as given in ChEMBL document CHEMBL3045607, “Design and synthesis of novel N-substituted-3-chloro-2-azetidinone derivatives as potential anticonvulsant agents” (Med Chem Res, 2011).
The source made the active and inactive calls. No cut-off for these calls is given here.

Key:
Mus musculus [1] = assay: Anticonvulsant activity in ip dosed Mus musculus (mouse) assessed as protection against maximal electroshock-induced seizure after 0.5 hr; format: functional; conditions: read-out: MED
Mus musculus [2] = assay: Neurotoxicity in Mus musculus (mouse) assessed as increase in immobility time at 30 mg/kg, ip administered 30 min before test measured for 5 min by forced swimming test; format: toxicity, organism-based; parameters: dose 30 mg/kg, route intraperitoneal; conditions: in vivo
Mus musculus [3] = assay: Neurotoxicity in Mus musculus (mouse) assessed as minimal motor impairment at 300 mg/kg, ip after 0.5 hr by rotarod test; format: toxicity, organism-based; parameters: dose 300 mg/kg, route intraperitoneal; conditions: in vivo
Mus musculus [4] = assay: Anticonvulsant activity in ip dosed Mus musculus (mouse) assessed as protection against subcutaneous pentylene tetrazole-induced seizure after 4 hr; format: functional; conditions: read-out: MED
Mus musculus [5] = assay: Anticonvulsant activity in ip dosed Mus musculus (mouse) assessed as protection against subcutaneous pentylene tetrazole-induced seizure after 0.5 hr; format: functional; conditions: read-out: MED
Mus musculus [6] = assay: Anticonvulsant activity in ip dosed Mus musculus (mouse) assessed as protection against maximal electroshock-induced seizure after 4 hr; format: functional; conditions: read-out: MED
Mus musculus [7] = assay: Neurotoxicity in Mus musculus (mouse) assessed as minimal motor impairment at 300 mg/kg, ip after 4 hr by rotarod test; format: toxicity, organism-based; parameters: dose 300 mg/kg, route intraperitoneal; conditions: in vivo
Mus musculus [8] = assay: Anticonvulsant activity in Mus musculus (mouse) assessed as protection against maximal electroshock-induced seizure at 300 mg/kg, ip after 0.5 hr; format: functional, organism-based; parameters: dose 300 mg/kg
Mus musculus [9] = assay: Anticonvulsant activity in Mus musculus (mouse) assessed as protection against subcutaneous pentylene tetrazole-induced seizure at 300 mg/kg, ip after 4 hr; format: functional, organism-based; parameters: dose 300 mg/kg
Mus musculus [10] = assay: Anticonvulsant activity in Mus musculus (mouse) assessed as protection against subcutaneous pentylene tetrazole-induced seizure at 300 mg/kg, ip after 0.5 hr; format: functional, organism-based; parameters: dose 300 mg/kg
Mus musculus [11] = assay: Neurotoxicity in ip dosed Mus musculus (mouse) assessed as minimal motor impairment after 4 hr by rotarod test; format: toxicity, organism-based; conditions: in vivo
Mus musculus [12] = assay: Neurotoxicity in ip dosed Mus musculus (mouse) assessed as minimal motor impairment after 0.5 hr by rotarod test; format: toxicity, organism-based; conditions: in vivo

Q: With `COc1ccc(C2C(Cl)C(=O)N2NC(=O)c2ccncc2)cc1OC` (stereo not given) as the compound, how does the minimal effective dose (Mus musculus [1]) read?
A: Its minimal effective dose is 100 mg/kg.

Q: And the Activity (Mus musculus [2])?
A: Its Activity is 33.83%.

Q: What about the Activity (Mus musculus [3]) of the same compound?
A: The Activity was “Non-toxic”.

Q: What about the minimal effective dose (Mus musculus [4]) of the same compound?
A: The minimal effective dose was 100 mg/kg.

Q: And the minimal effective dose (Mus musculus [5])?
A: Its minimal effective dose is 100 mg/kg.

Q: What about the minimal effective dose (Mus musculus [6]) of the same compound?
A: Its minimal effective dose is 100 mg/kg.

Q: And the Activity (Mus musculus [7])?
A: The Activity was “Non-toxic”.

Q: Which Activity (Mus musculus [3]) does the source give for `COc1ccccc1C1C(Cl)C(=O)N1NC(=O)c1ccncc1` (stereo not given) here?
A: The Activity was “Non-toxic”.

Q: And the Activity (Mus musculus [8])?
A: Its Activity is “inactive”.

Q: And the minimal effective dose (Mus musculus [6])?
A: Its minimal effective dose is 300 mg/kg.

Q: What about the Activity (Mus musculus [7]) of the same compound?
A: The Activity was “Non-toxic”.

Q: And the Activity (Mus musculus [9])?
A: The Activity was “inactive”.

Q: And the Activity (Mus musculus [10])?
A: Its Activity is “inactive”.

Q: How did the minimal effective dose (Mus musculus [1]) turn out when `Cc1ccc(C2C(Cl)C(=O)N2NC(=O)c2ccncc2)cc1` (stereo not given) was run?
A: The minimal effective dose was 30 mg/kg.

Q: What about the Activity (Mus musculus [2]) of the same compound?
A: Its Activity is 21.66%.

Q: And the Activity (Mus musculus [3])?
A: The Activity was “Non-toxic”.

Q: And the minimal effective dose (Mus musculus [4])?
A: The minimal effective dose was 30 mg/kg.

Q: And the minimal effective dose (Mus musculus [5])?
A: The minimal effective dose was 100 mg/kg.

Q: What about the minimal effective dose (Mus musculus [6]) of the same compound?
A: Its minimal effective dose is 30 mg/kg.

Q: And the Activity (Mus musculus [7])?
A: The Activity was “Non-toxic”.

Q: Which Activity (Mus musculus [3]) does the source give for `O=C(NN1C(=O)C(Cl)C1c1ccc([N+](=O)[O-])cc1)c1ccncc1` (stereo not given) here?
A: The Activity was “Non-toxic”.

Q: What about the Activity (Mus musculus [8]) of the same compound?
A: Its Activity is “inactive”.

Q: And the minimal effective dose (Mus musculus [4])?
A: The minimal effective dose was 100 mg/kg.

Q: What about the minimal effective dose (Mus musculus [5]) of the same compound?
A: Its minimal effective dose is 300 mg/kg.

Q: And the MTC (Mus musculus [11])?
A: The MTC was 300 mg/kg.

Q: And the minimal effective dose (Mus musculus [6])?
A: The minimal effective dose was 100 mg/kg.

Q: With `CN(C)c1ccc(C2C(Cl)C(=O)N2NC(=O)c2ccncc2)cc1` (stereo not given) as the compound, how does the minimal effective dose (Mus musculus [1]) read?
A: Its minimal effective dose is 100 mg/kg.

Q: What about the Activity (Mus musculus [2]) of the same compound?
A: The Activity was 49.83%.

Q: And the Activity (Mus musculus [3])?
A: The Activity was “Non-toxic”.

Q: And the minimal effective dose (Mus musculus [4])?
A: The minimal effective dose was 100 mg/kg.

Q: And the minimal effective dose (Mus musculus [6])?
A: Its minimal effective dose is 100 mg/kg.

Q: And the Activity (Mus musculus [7])?
A: Its Activity is “Non-toxic”.

Q: And the Activity (Mus musculus [10])?
A: The Activity was “inactive”.

Q: What does the source list for `COc1cc(C2C(Cl)C(=O)N2NC(=O)c2ccncc2)ccc1O` (stereo not given)?
A: minimal effective dose (Mus musculus [1]): 300 mg/kg; Activity (Mus musculus [3]): Non-toxic; minimal effective dose (Mus musculus [4]): 300 mg/kg; minimal effective dose (Mus musculus [6]): 100 mg/kg; Activity (Mus musculus [7]): Non-toxic; Activity (Mus musculus [10]): inactive

Q: Which results are given for `O=C1NC(=O)C(c2ccccc2)(c2ccccc2)N1` [PHENYTOIN]?
A: minimal effective dose (Mus musculus [1]): 30 mg/kg; MTC (Mus musculus [12]): 100 mg/kg; MTC (Mus musculus [11]): 100 mg/kg; minimal effective dose (Mus musculus [6]): 30 mg/kg; Activity (Mus musculus [9]): inactive; Activity (Mus musculus [10]): inactive

Q: `O=C(NN1C(=O)C(Cl)C1c1ccc(Cl)cc1)c1ccncc1` (stereo not given) was tested. Which minimal effective dose (Mus musculus [1]) did it give?
A: The minimal effective dose was 300 mg/kg.

Q: What about the Activity (Mus musculus [2]) of the same compound?
A: The Activity was 54.54%.

Q: What about the Activity (Mus musculus [3]) of the same compound?
A: The Activity was “Non-toxic”.

Q: What about the minimal effective dose (Mus musculus [4]) of the same compound?
A: The minimal effective dose was 100 mg/kg.

Q: And the minimal effective dose (Mus musculus [5])?
A: Its minimal effective dose is 100 mg/kg.

Q: And the minimal effective dose (Mus musculus [6])?
A: The minimal effective dose was 100 mg/kg.

Q: And the Activity (Mus musculus [7])?
A: The Activity was “Non-toxic”.

Q: With `O=C(NN1C(=O)C(Cl)C1c1ccccc1O)c1ccncc1` (stereo not given) as the compound, how does the Activity (Mus musculus [3]) read?
A: Its Activity is “Non-toxic”.

Q: What about the Activity (Mus musculus [8]) of the same compound?
A: The Activity was “inactive”.

Q: And the minimal effective dose (Mus musculus [6])?
A: Its minimal effective dose is 300 mg/kg.

Q: What about the Activity (Mus musculus [7]) of the same compound?
A: Its Activity is “Non-toxic”.

Q: And the Activity (Mus musculus [9])?
A: The Activity was “inactive”.

Q: And the Activity (Mus musculus [10])?
A: Its Activity is “inactive”.

Q: `O=C(NN1C(=O)C(Cl)C1c1ccc(O)cc1)c1ccncc1` (stereo not given) was tested. Which Activity (Mus musculus [3]) did it give?
A: The Activity was “Non-toxic”.

Q: And the Activity (Mus musculus [8])?
A: The Activity was “inactive”.

Q: And the minimal effective dose (Mus musculus [4])?
A: Its minimal effective dose is 300 mg/kg.

Q: What about the MTC (Mus musculus [11]) of the same compound?
A: The MTC was 300 mg/kg.

Q: And the minimal effective dose (Mus musculus [6])?
A: Its minimal effective dose is 100 mg/kg.

Q: What about the Activity (Mus musculus [10]) of the same compound?
A: The Activity was “inactive”.

Q: Which Activity (Mus musculus [3]) does the source give for `O=C(NN1C(=O)C(Cl)C1c1ccccc1Cl)c1ccncc1` (stereo not given) here?
A: Its Activity is “Non-toxic”.

Q: And the Activity (Mus musculus [8])?
A: The Activity was “inactive”.

Q: What about the minimal effective dose (Mus musculus [6]) of the same compound?
A: The minimal effective dose was 300 mg/kg.

Q: And the Activity (Mus musculus [7])?
A: Its Activity is “Non-toxic”.

Q: What about the Activity (Mus musculus [9]) of the same compound?
A: Its Activity is “inactive”.

Q: And the Activity (Mus musculus [10])?
A: The Activity was “inactive”.

Q: For `O=C(NN1C(=O)C(Cl)C1c1ccccc1[N+](=O)[O-])c1ccncc1` (stereo not given), which Activity (Mus musculus [3]) is on record?
A: Its Activity is “Non-toxic”.

Q: What about the Activity (Mus musculus [8]) of the same compound?
A: The Activity was “inactive”.

Q: And the minimal effective dose (Mus musculus [4])?
A: Its minimal effective dose is 300 mg/kg.

Q: And the minimal effective dose (Mus musculus [6])?
A: The minimal effective dose was 300 mg/kg.

Q: And the Activity (Mus musculus [7])?
A: Its Activity is “Non-toxic”.

Q: And the Activity (Mus musculus [10])?
A: The Activity was “inactive”.

Q: How did the minimal effective dose (Mus musculus [1]) turn out when `NC(=O)N1c2ccccc2C=Cc2ccccc21` [CARBAMAZEPINE] was run?
A: The minimal effective dose was 30 mg/kg.

Q: And the Activity (Mus musculus [2])?
A: The Activity was 30.66%.

Q: And the Activity (Mus musculus [3])?
A: Its Activity is “Non-toxic”.

Q: What about the minimal effective dose (Mus musculus [4]) of the same compound?
A: Its minimal effective dose is 300 mg/kg.

Q: And the minimal effective dose (Mus musculus [5])?
A: Its minimal effective dose is 100 mg/kg.

Q: And the MTC (Mus musculus [11])?
A: Its MTC is 30 mg/kg.

Q: What about the minimal effective dose (Mus musculus [6]) of the same compound?
A: The minimal effective dose was 100 mg/kg.

Q: What does the source list for `O=C(NN1C(=O)C(Cl)C1c1ccccc1)c1ccncc1` (stereo not given)?
A: minimal effective dose (Mus musculus [1]): 100 mg/kg; Activity (Mus musculus [2]): 11.5%; Activity (Mus musculus [3]): Non-toxic; minimal effective dose (Mus musculus [4]): 100 mg/kg; minimal effective dose (Mus musculus [5]): 100 mg/kg; minimal effective dose (Mus musculus [6]): 100 mg/kg; Activity (Mus musculus [7]): Non-toxic
